Tests used:
[1] = biological target: T1, Muscarinic acetylcholine receptor M1 (Rattus norvegicus, UniProt P08482)
T1 sequence (P08482 whole entry): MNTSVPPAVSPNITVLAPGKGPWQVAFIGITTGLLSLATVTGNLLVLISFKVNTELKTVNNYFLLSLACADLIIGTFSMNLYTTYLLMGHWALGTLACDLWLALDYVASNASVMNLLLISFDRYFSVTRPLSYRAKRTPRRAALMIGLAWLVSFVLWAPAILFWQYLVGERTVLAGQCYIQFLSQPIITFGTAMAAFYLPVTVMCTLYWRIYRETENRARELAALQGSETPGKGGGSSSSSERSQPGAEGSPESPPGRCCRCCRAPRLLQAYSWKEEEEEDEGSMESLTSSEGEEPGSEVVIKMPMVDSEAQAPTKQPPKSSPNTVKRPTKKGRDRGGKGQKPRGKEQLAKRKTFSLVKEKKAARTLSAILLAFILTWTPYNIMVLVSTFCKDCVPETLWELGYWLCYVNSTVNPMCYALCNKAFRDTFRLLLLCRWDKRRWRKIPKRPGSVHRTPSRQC

[2] = biological target: Muscarinic acetylcholine receptor M3 (Rattus norvegicus, UniProt P08483)
Sequence of Muscarinic acetylcholine receptor M3 (P08483 whole entry): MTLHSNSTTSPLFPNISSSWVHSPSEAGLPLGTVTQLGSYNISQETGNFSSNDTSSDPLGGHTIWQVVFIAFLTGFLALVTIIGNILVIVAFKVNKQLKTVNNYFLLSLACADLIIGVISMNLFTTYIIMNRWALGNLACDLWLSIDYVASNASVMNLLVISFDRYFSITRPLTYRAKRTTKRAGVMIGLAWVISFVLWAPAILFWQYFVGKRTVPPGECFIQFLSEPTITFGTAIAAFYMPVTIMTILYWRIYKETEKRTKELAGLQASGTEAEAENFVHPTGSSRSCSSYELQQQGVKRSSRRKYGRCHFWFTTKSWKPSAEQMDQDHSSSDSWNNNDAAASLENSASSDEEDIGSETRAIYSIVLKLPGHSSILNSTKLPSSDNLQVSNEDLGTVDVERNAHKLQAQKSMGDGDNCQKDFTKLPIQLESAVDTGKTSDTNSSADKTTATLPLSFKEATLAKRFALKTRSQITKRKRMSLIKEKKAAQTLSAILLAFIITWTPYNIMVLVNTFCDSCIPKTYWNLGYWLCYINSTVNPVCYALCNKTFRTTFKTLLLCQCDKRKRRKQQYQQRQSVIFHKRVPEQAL

[3] = biological target: T2, Muscarinic acetylcholine receptor M4 (Homo sapiens, UniProt P08173)
T2 sequence (P08173 whole entry): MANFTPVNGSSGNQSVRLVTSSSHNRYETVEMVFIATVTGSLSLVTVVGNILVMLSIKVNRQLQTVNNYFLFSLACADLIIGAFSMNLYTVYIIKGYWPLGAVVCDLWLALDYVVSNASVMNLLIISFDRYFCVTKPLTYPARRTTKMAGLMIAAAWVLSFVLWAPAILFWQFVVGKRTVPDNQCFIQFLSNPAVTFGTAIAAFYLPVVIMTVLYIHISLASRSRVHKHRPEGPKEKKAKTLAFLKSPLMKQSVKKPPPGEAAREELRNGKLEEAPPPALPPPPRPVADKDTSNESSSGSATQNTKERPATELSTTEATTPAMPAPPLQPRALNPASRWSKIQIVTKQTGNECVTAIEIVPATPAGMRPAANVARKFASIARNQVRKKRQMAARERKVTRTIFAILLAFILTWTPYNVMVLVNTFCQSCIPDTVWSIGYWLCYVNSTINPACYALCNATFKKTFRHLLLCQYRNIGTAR

[4] = biological target: T3, Muscarinic acetylcholine receptor M5 (Homo sapiens, UniProt P08912)
T3 sequence (P08912 whole entry): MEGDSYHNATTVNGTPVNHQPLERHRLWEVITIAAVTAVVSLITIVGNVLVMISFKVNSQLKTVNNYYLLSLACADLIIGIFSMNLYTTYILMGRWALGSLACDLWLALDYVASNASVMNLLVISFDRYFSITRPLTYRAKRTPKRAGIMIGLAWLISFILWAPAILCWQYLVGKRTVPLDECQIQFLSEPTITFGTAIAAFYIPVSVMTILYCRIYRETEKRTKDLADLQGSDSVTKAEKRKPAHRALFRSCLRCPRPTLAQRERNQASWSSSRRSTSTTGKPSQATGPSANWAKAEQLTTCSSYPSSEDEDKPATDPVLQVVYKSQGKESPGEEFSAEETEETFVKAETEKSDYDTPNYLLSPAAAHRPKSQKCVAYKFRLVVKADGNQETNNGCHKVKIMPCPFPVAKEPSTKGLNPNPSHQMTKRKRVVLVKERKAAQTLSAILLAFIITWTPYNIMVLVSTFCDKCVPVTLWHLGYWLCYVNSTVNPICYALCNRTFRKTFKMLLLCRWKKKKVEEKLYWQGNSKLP

Measured: Ki

CC(CCC(=O)NCC(=O)O)C1CCC2C3CCC4CC(O)CCC4(C)C3CCC12C (stereo unspecified) [CAS_115245]
> 10 µM: all assays above

CC(CCC(=O)NCCS(=O)(=O)O)C1CCC2C3CCC4CC(O)CCC4(C)C3CCC12C (stereo unspecified) [NSC_10595]
> 10 µM: [1] | [2]

Reference: BindingDB's records for doi:10.1124/jpet.102.036376 (University of Arkansas, 2002)
